In ChEMBL document CHEMBL5291721, “A preclinical secondary pharmacology resource illuminates target-adverse drug reaction associations of marketed drugs” (Nat Commun, 2023):

What was measured:
[1] = molecular target: D(3) dopamine receptor (Homo sapiens, UniProt P35462)
[2] = molecular target: T1, 5-hydroxytryptamine receptor 1A (Homo sapiens, UniProt P08908)
T1 sequence (P08908 whole entry): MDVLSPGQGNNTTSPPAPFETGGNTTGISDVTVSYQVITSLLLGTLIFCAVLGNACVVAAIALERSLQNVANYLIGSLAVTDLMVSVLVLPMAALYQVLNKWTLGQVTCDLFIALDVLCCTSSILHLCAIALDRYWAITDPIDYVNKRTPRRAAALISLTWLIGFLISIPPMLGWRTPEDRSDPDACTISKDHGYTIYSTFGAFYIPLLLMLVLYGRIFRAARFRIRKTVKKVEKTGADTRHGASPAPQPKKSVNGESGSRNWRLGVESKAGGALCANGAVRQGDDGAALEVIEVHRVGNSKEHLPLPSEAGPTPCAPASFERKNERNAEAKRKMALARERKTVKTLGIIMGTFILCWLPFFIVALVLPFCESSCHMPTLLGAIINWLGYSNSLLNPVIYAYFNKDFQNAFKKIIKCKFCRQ

[3] = molecular target: T2, Estrogen receptor (Homo sapiens, UniProt P03372)
T2 sequence (P03372 whole entry): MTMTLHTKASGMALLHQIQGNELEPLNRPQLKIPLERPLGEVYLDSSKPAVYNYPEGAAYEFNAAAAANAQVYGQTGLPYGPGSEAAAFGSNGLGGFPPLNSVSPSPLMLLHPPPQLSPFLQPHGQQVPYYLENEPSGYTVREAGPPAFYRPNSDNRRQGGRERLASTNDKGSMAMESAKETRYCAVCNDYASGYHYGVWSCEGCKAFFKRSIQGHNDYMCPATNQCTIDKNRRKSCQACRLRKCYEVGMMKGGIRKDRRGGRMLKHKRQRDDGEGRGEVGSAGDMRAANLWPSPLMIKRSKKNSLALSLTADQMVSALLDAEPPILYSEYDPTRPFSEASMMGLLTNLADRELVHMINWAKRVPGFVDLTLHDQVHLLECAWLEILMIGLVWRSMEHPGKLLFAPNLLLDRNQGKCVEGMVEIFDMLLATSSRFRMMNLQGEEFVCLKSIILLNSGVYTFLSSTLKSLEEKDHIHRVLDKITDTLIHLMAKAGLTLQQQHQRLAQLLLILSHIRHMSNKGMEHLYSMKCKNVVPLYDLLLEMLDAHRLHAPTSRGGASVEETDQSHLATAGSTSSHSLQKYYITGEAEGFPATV

[4] = molecular target: Gamma-aminobutyric acid receptor subunit alpha-1/alpha-2/beta-2/gamma-2 (Homo sapiens, UniProt P14867+P47870+P18507+P47869); format: functional, cell-based
[5] = molecular target: T3, Thromboxane A2 receptor (Homo sapiens, UniProt P21731); format: functional, cell-based
T3 sequence (P21731 whole entry): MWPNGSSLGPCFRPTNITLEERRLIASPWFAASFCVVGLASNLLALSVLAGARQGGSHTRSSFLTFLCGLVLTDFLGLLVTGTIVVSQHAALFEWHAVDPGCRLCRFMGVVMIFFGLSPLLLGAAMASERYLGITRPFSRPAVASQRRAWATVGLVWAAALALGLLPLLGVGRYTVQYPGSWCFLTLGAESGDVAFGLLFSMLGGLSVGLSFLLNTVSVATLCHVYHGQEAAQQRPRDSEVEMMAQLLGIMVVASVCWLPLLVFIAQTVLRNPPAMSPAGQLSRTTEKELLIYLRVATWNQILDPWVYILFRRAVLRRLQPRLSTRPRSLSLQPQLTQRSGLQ

[6] = molecular target: Histamine H1 receptor (Homo sapiens, UniProt P35367); format: functional, cell-based
Note: assay procedure not described here.

Chain of D(3) dopamine receptor (P35462 whole entry): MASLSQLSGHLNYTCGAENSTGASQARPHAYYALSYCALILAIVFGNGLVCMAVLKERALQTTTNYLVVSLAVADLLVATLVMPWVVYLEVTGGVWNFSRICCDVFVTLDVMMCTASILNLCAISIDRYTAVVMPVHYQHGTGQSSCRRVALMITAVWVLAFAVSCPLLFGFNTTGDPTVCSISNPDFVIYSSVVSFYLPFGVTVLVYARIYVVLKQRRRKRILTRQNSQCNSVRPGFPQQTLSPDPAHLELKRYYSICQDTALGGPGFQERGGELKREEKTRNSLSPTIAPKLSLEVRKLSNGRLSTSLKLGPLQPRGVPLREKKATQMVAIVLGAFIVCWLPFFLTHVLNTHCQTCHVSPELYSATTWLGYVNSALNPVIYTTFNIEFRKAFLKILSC
Chain of Gamma-aminobutyric acid receptor subunit alpha-1/alpha-2/beta-2/gamma-2 (P14867 whole entry): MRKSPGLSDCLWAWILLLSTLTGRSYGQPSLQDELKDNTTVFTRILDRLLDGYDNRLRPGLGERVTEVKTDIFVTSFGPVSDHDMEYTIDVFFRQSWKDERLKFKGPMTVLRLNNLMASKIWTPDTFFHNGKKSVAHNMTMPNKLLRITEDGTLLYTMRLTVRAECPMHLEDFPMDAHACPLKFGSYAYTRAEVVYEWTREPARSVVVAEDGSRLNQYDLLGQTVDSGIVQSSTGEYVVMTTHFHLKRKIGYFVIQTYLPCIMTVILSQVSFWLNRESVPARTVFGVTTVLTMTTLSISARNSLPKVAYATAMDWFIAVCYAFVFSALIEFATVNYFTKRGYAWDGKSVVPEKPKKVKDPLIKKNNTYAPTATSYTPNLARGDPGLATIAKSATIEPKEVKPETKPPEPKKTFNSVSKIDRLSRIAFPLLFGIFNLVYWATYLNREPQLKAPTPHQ
Chain of Gamma-aminobutyric acid receptor subunit alpha-1/alpha-2/beta-2/gamma-2 (P47870 whole entry): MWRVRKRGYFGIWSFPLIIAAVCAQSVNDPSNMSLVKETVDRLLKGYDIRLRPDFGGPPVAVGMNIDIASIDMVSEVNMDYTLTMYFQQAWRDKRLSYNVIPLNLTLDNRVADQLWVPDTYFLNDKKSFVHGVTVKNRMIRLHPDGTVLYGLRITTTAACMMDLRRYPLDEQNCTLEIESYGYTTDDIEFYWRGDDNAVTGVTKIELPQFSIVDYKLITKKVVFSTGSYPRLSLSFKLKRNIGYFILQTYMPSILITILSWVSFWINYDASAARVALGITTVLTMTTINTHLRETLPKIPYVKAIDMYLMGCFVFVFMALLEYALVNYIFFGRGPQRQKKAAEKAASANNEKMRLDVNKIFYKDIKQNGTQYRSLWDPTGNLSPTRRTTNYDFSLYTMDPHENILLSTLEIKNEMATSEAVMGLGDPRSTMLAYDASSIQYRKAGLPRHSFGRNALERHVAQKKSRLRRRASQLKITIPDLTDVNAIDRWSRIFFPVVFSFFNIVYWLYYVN
Chain of Gamma-aminobutyric acid receptor subunit alpha-1/alpha-2/beta-2/gamma-2 (P18507 whole entry): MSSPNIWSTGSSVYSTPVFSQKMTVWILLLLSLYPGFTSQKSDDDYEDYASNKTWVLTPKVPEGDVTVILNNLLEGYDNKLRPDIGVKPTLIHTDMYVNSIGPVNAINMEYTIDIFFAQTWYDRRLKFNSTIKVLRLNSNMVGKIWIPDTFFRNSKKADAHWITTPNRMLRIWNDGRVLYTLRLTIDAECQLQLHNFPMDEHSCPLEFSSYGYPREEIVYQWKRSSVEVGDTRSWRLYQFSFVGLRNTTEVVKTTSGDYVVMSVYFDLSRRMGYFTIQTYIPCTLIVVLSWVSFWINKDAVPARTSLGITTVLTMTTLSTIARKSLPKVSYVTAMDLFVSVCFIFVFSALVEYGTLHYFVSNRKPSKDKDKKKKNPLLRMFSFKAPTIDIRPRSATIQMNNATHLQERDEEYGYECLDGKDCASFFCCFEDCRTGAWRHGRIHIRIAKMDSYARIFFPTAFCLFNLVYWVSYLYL
Chain of Gamma-aminobutyric acid receptor subunit alpha-1/alpha-2/beta-2/gamma-2 (P47869 whole entry): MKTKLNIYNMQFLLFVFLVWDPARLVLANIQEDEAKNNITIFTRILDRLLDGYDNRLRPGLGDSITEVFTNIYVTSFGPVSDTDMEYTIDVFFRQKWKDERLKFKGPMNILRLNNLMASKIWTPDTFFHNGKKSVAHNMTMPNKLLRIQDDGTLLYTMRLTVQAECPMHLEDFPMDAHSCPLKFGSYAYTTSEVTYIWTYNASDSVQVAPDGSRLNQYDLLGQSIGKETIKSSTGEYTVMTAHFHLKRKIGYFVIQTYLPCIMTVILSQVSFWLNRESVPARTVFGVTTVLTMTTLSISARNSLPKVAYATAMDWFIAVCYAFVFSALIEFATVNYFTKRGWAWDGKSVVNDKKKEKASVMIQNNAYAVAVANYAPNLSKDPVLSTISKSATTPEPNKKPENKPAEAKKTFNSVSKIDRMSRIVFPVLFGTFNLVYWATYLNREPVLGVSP
Chain of Histamine H1 receptor (P35367 whole entry): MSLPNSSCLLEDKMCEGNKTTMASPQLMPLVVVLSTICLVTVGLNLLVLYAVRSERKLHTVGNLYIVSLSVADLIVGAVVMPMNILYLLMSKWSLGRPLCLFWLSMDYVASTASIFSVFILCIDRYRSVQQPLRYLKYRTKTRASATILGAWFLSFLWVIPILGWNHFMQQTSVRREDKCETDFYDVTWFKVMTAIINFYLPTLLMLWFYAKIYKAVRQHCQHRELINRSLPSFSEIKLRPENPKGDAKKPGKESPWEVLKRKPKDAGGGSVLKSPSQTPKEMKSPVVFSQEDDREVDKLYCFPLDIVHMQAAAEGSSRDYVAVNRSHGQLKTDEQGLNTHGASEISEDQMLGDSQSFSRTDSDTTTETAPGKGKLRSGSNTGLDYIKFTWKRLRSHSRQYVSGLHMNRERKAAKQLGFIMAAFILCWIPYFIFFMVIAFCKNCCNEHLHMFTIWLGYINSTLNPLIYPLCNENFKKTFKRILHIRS

## CO[C@]12C[C@@H](COC(=O)c3cncc(Br)c3)CN(C)[C@@H]1Cc1cn(C)c3cccc2c13 [NICERGOLINE]
[1]
  AC50: 0.641 µM
[2]
  AC50: 0.003 µM

## THIMEROSAL
[3]
  AC50: > 30 µM
[4]
  AC50: > 30 µM
[5]
  AC50: > 10 µM

## NC(=O)CN1CC(O)CC1=O (stereo unspecified) [OXIRACETAM]
[6]
  AC50: > 30 µM
